From article PMC13672995, “NCR13 peptide protects soybean against Cercospora sojina using multi-faceted modes of action and additive interaction with chemical fungicides” (Journal of Experimental Botany, 2025)
Entries after “also recorded” stand apart in the source; their conditions may differ. Where no end group is shown, it is not given here.

How the values were obtained:
[1] = system: azoxystrobin-resistant C. sojina Cs350 conidia; experiment: Cell death detection assay (propidium iodide, confocal microscopy); type: cell-based, Cercospora sojina; conditions: NCR13_PFV1 1.5 μM alone; within 1 h; PI staining; n=3
Method: The fungicidal activity of azoxystrobin and peptide NCR13_PFV1 in azoxystrobin-resistant C. sojina Cs350 was analyzed by visualizing the influx of a cell death indicator dye propidium iodide (PI) using time-lapse confocal microscopy. The C. sojina conidia were treated with various concentrations of azoxystrobin, NCR13_PFV1, azoxystrobin plus NCR13_PFV1, or water and 0.5 μg ml^–1 PI, and were observed under confocal microscopy at an excitation and emission wavelength of 500 nm and 545–690 nm, respectively. Z-stacks at each time point were acquired using a ×63 water immersion objective lens (HC PL Apochromat CS2). For each sample, the number of live and dead cells after 1 h of peptide, fungicide, or combination treatment was determined.

C. sojina Cs350 cells = experiment: Uptake and subcellular localization by time-lapse confocal microscopy; type: cell-based, Cercospora sojina; conditions: DyLight550-labeled peptide; nuclear localization mostly at 0.75 μM (0.5× MIC); Hoechst, CMAC and BODIPY co-staining
Method: NCR13_PFV1 was labeled with DyLight550 amine-reactive dye following the manufacturer’s instructions (Thermo Scientific), and time-lapse confocal microscopy was performed to measure the uptake and subcellular localization of the peptide in C. sojina Cs350 cells. The nuclear staining dye Hoechst 3352 was used along with DyLight550-NCR13_PFV1 to determine the subcellular localization of NCR13_PFV1 in C. sojina. Conidia grown for 6–8 h were treated with 0.75 µM Dylight550-NCR13_PFV1 and incubated for 30 min, after which 4 µM Hoechst 3352 dye was added for another 15 min. Treated conidia were used to capture z-stacks at specific time intervals using a Leica SP8-X confocal microscope (×63 water immersion objective lens, HC PL Apochromat CS2) in fluorescence and transmitted light mode. The excitation and emission wavelengths of DyLight550-NCR13_PFV1 and Hoechst 3352 were 550 nm, 560–660 nm, and 405 nm, 420–500 nm, respectively. Similarly, to determine the subcellular localization of NCR13_PFV1 in other organelles, C. sojina conidia were also stained with the vacuole-specific dye CMAC and the lipid staining dye BODIPY 493/503 (Thermo Scientific). The excitation and emission wavelengths for CMAC and BODIPY were 405 nm, 420–500 nm, and 493 nm, 505–540 nm, respectively.

C. sojina rRNA = experiment: Electrophoretic mobility shift assay (EMSA); type: binding, Cercospora sojina; conditions: ~200 ng C. sojina RNA, 10 mM Tris–HCl pH 8.0, 1 mM EDTA, 1 h, room temperature
Method: To determine the RNA binding ability of NCR13_PFV1, EMSA was performed as described in [Godwin et al. (2024)]. Briefly, total RNA was extracted from C. sojina Cs350 grown in SFM using the ZymoBIOMICS DNA/RNA Miniprep Kit (Zymo Research). Approximately 200 ng of the fungal RNA was mixed with different concentrations of NCR13_PFV1 in 20 μl of binding buffer (10 mM Tris–HCl, pH 8.0, 1 mM EDTA), incubated at room temperature for 1 h, and run through gel electrophoresis.

TKPCQSDKDCKKFACRKPKVPKCINGFCKCVR (disulfide (positions not given here)) [NCR13_PFV1, chickpea nodule-specific cysteine-rich 32 amino acid peptide, disulfide cross-linking variant 1, expressed in Pichia pastoris]
cell death [1]: 57%
subcellular localization (C. sojina Cs350 cells): localized to the nucleus; also recorded: no evidence of co-localization of the peptide with either lipid bodies or the vacuole
concentration from which binding to rRNA was observed (C. sojina rRNA): 6 µM
